In patent US3940248A, “Method for inhibiting corrosion of metal” (Otsuka Kagaku Yakuhin Kabushiki Kaisha, priority 1972, dated 1976) one finds LD50 data, which are given here for 2 molecules.

Data set [1] can be described thus: in vivo. The note with it: rat, po.
Protocol: The LD50 test was conducted using male Wistar rats after 24 hours' fasting weighing 150 g, each 10 rats as a group.
In data set [2] the test system is male Wistar rats. The note with it: sodium nitrite, as determined in rats; cited from earlier work.

As to `Cc1cc(O)c2nncn2n1`, in data set [1], the median lethal dose (LD50) was around 3750 mg/kg.

`O=NO` [Sodium nitrite]: in data set [2], the LD50 is listed as 85 mg/kg.
